Laboratory results taken from ChEMBL document CHEMBL1156098, “Antitumor agents 269. Non-aromatic ring-A neotanshinlactone analog, TNO, as a new class of potent antitumor agents” (2009).

Assays:
Format in all cases: functional
[1] = system: MDA-MB-231; assay: Cytotoxicity against human MDA-MB-231 cells after 3 days by SRB assay; details: MDA-MB-231, 72 h, read-out: ED50 (the source's name)
[2] = system: DU-145; assay: Cytotoxicity against human DU145 cells after 3 days by SRB assay; details: DU-145, 72 h, read-out: ED50 (the source's name)
[3] = system: A549; assay: Cytotoxicity against human A549 cells after 3 days by SRB assay; details: A549, 72 h, read-out: ED50 (the source's name)
[4] = system: ZR-75-1; assay: Cytotoxicity against human ZR-75-1 cells after 3 days by SRB assay; details: ZR-75-1, 72 h, read-out: ED50 (the source's name)
[5] = system: SK-BR-3; assay: Cytotoxicity against human SK-BR-3 cells after 3 days by SRB assay; details: SK-BR-3, 72 h, read-out: ED50 (the source's name)
[6] = system: KB; assay: Cytotoxicity against human KB cells after 3 days by SRB assay; details: 72 h, read-out: ED50 (the source's name)
[7] = Cytotoxicity against human KBVIN cells after 3 days by SRB assay; details: 72 h, read-out: ED50 (the source's name)

Row | Compound | EC50 [1] | EC50 [2] | EC50 [3] | EC50 [4] | EC50 [5] | EC50 [6] | EC50 [7]
1 | COc1c(-c2occ(C)c2C(=O)O)ccc2c1CCCC2(C)C | > 61 µM | 34.1 µM | 53.5 µM | 41.4 µM | 25.5 µM | 43.3 µM | 47.8 µM
2 | COC(=O)c1c(C)coc1-c1ccc2c(c1OC)CCCC2(C)C | 61 µM | 33.5 µM | 61 µM | 34.5 µM | 27.1 µM | 53.4 µM | 52.1 µM
3 | COc1c(-c2occ(C)c2COC(C)=O)ccc2c1CCCC2(C)C | 55.6 µM | 16.7 µM | 28.7 µM | 15.5 µM | 14 µM | 25.4 µM | 24.9 µM
4 | COCc1c(C)coc1-c1ccc2c(c1OC)CCCC2(C)C | 47.8 µM | 17.5 µM | 19.4 µM | 14.3 µM | 18.5 µM | 11.5 µM | 20.1 µM
5 | Cc1coc(-c2ccc3c(c2O)CCCC3)c1C(=O)O | 73.5 µM | 40.4 µM | 57 µM | 21.7 µM | 32.4 µM | 50 µM | 29.4 µM
6 | CCOc1c(-c2occ(C)c2CO)ccc2c1CCCC2(C)C | 39.8 µM | 17.5 µM | 22.9 µM | 14.3 µM | 9.9 µM | 16.9 µM | 15.3 µM
7 | CCOCc1c(C)coc1-c1ccc2c(c1OC)CCCC2(C)C | 42.7 µM | 17.7 µM | 22.9 µM | 19.8 µM | 19.8 µM | 21.6 µM | 16.5 µM
8 | Cc1coc(-c2ccc3c(c2O)CCCC3(C)C)c1CO | 39.5 µM | 22.7 µM | 24.5 µM | 25.5 µM | 21.3 µM | 22 µM | 19.9 µM
9 | CCc1cccc2c(O)c(-c3occ(C)c3C(=O)O)ccc12 | > 37 µM | 29.4 µM | 35.8 µM | 1 µM | 3.4 µM | 30.7 µM | 23.6 µM
10 | Cc1coc2c1c(=O)oc1c3c(ccc12)CCC3 | > 37 µM | > 37 µM | > 37 µM | > 37 µM | > 60 µM | > 37 µM | > 37 µM
11 | Cc1coc2c1c(=O)oc1c3c(ccc12)CCCC3 | 38.6 µM | 32.7 µM | 10.2 µM | 8.3 µM | 5.1 µM | 31.5 µM | 10.2 µM
12 | Cc1coc2c1c(=O)oc1c3c(ccc12)C(C)(C)CCC3 | > 37 µM | 31.9 µM | 28 µM | 32.3 µM | 35.8 µM | 30.5 µM | 34.4 µM
13 | Cc1coc(-c2ccc3c(c2O)CCCC3(C)C)c1C(=O)O | 24.7 µM | 3 µM | 3.3 µM | 1.7 µM | 0.7 µM | 4.7 µM | 4.7 µM
14 | Cc1coc(-c2ccc3c(c2O)CCC3)c1C(=O)O | 44.6 µM | 38.4 µM | 41.5 µM | 30.2 µM | 30.2 µM | 31.4 µM | 30.2 µM
15 | COc1c(-c2occ(C)c2CO)ccc2c1CCCC2(C)C | 28.3 µM | 21.7 µM | 23.3 µM | 15 µM | 23.7 µM | 25.3 µM | 21.7 µM
16 | Cc1cccc2c1ccc1c3occ(C)c3c(=O)oc21 | 37.9 µM | 58.3 µM | 54.2 µM | 1.1 µM | 0.8 µM | > 37 µM | > 37 µM
